Our source for the remaining activity values is PMC8286840, “Identifying SARS-CoV-2 antiviral compounds by screening for small molecule inhibitors of Nsp3 papain-like protease” (Biochemical Journal, 2021).

The target in assay [1] is T1, SARS-CoV-2 PLpro (nsp3 1564–1878) (Severe acute respiratory syndrome coronavirus 2, UniProt P0DTD1). The assay can be described thus: biochemical. The following applies: read-out: % of control remaining. The arrangement: FRET-quenched peptide (Pro3) cleavage by PLpro, 10 min pre-incubation, slope over 20 min, normalised to no-compound control.
Assay [2] deals with T1, SARS-CoV-2 PLpro (nsp3 1564–1878). As to the kind of experiment: biochemical. Conditions: read-out: % of control remaining. Also noted: FRET-quenched peptide (Pro3) cleavage by PLpro, 10 min pre-incubation, slope over 20 min, normalised to no-compound control. This is another data set of the same source.

Structures can show the parent of a compound that is named as a salt. Where two headings read alike, the source gives them in different places.

On to `COC(=O)c1cc2c(cn1)[nH]c1ccccc12` [Methyl beta-carboline-3-carboxylate], for which the remaining activity at 3.75 µM in assay [1] (Well no.=607, high concentration screen) turned out to be 98.2%. Besides, the remaining activity at 1.25 µM in assay [2] (Well no.=607, low concentration screen) was determined as 95.4%.

On to `CO[C@]1(CC[C@@H](C)CO[C@@H]2O[C@H](CO)[C@@H](O)[C@H](O)[C@H]2O)O[C@H]2C[C@H]3[C@@H]4CC=C5C[C@@H](O[C@@H]6O[C@H](CO)[C@@H](O[C@@H]7O[C@@H](C)[C@H](O)[C@@H](O)[C@H]7O)[C@H](O)[C@H]6O[C@@H]6O[C@@H](C)[C@H](O)[C@@H](O)[C@H]6O)CC[C@]5(C)[C@H]4CC[C@]3(C)[C@H]2[C@@H]1C` [Methyl protodioscin], for which the remaining activity at 3.75 µM in assay [1] (Well no.=6208, high concentration screen) turned out to be 93.7%. Besides, the remaining activity at 1.25 µM in assay [2] (Well no.=6208, low concentration screen) came out at 101%.

With `COC(=O)c1ccccc1O` [Methyl salicylate], in assay [1] (Well no.=1716, high concentration screen), the remaining activity at 3.75 µM amounted to 101%. For the same compound, the remaining activity at 1.25 µM in assay [2] (Well no.=1716, low concentration screen) is 102%.

For `COc1ccc([C@@H]2CC(=O)c3c(O)cc(O[C@@H]4O[C@H](CO[C@@H]5O[C@@H](C)[C@H](O)[C@@H](O)[C@H]5O)[C@@H](O)[C@H](O)[C@H]4O)cc3O2)cc1OC` [Methyl-Hesperidin], the remaining activity at 3.75 µM in assay [1] (Well no.=4864, high concentration screen) amounted to 99.3%. In addition, in assay [2] (Well no.=4864, low concentration screen), the remaining activity at 1.25 µM was 98.4%.

Turning to `CC[N+](C)(CC)CCOC(=O)C(O)(c1ccccc1)c1ccccc1` [Methylbenactyzium Bromide], the remaining activity at 3.75 µM in assay [1] (Well no.=7773, high concentration screen) stood at 94.7%. Further, the remaining activity at 1.25 µM in assay [2] (Well no.=7773, low concentration screen) turned out to be 101%.

As to `CNC(=O)OCC[N+](C)(C)C` [Methylcarbamylcholine chloride], the remaining activity at 3.75 µM in assay [1] (Well no.=1135, high concentration screen) worked out at 96.5%. In assay [2] (Well no.=1135, low concentration screen), the remaining activity at 1.25 µM is 95.1%.

`C[C@](N)(Cc1ccc(O)c(O)c1)C(=O)O` [Methyldopa]: the remaining activity at 3.75 µM in assay [1] (Well no.=1955, high concentration screen) stood at 92.5%. In addition, the remaining activity at 1.25 µM in assay [2] (Well no.=1955, low concentration screen) turned out to be 92.2%.

With `CC[C@@H](CO)NC(=O)[C@@H]1C=C2c3cccc4[nH]cc(c34)C[C@H]2N(C)C1` [Methylergonovine maleate], the remaining activity at 3.75 µM in assay [1] (Well no.=1114, high concentration screen) was 90.6%; in assay [1] (Well no.=3250, high concentration screen) it was 98%. For the same compound, the remaining activity at 1.25 µM in assay [2] (Well no.=1114, low concentration screen) was determined as 94.9%; in assay [2] (Well no.=3250, low concentration screen), 98.4%.

In the case of `CC(C(=O)O)C(=O)O` [Methylmalonate], the remaining activity at 3.75 µM in assay [1] came out at 95.5%. Also, in assay [2], the remaining activity at 1.25 µM amounted to 100%.

In the case of `C[N@+]1(CC2CC2)CC[C@]23c4c5ccc(O)c4O[C@H]2C(=O)CC[C@@]3(O)[C@H]1C5` [Methylnaltrexone (Bromide)], the remaining activity at 3.75 µM in assay [1] (Well no.=8091, high concentration screen) was 102%. In assay [2] (Well no.=8091, low concentration screen), the remaining activity at 1.25 µM was 97.4%.

Regarding `C[C@H]1C[C@@H]2[C@H]([C@@H](O)C[C@@]3(C)[C@H]2CC[C@]3(O)C(=O)CO)[C@@]2(C)C=CC(=O)C=C12` [Methylprednisolone], the remaining activity at 3.75 µM in assay [1] (Well no.=1957, high concentration screen) amounted to 99.7%; in assay [1] (Well no.=6179, high concentration screen) it was 95.1%. Further, the remaining activity at 1.25 µM is 100% in assay [2] (Well no.=1957, low concentration screen) and 95.4% in assay [2] (Well no.=6179, low concentration screen).

With `Cc1cc(=O)[nH]c(=S)[nH]1` [Methylthiouracil], the remaining activity at 3.75 µM stood at 98.5% in assay [1] (Well no.=4973, high concentration screen) and 102% in assay [1] (Well no.=6148, high concentration screen). Also, the remaining activity at 1.25 µM in assay [2] (Well no.=4973, low concentration screen) came out at 99.9%; in assay [2] (Well no.=6148, low concentration screen), 98.5%.

Turning to `CC[C@@H](CO)NC(=O)[C@@H]1C=C2c3cccc4c3c(cn4C)C[C@H]2N(C)C1` [Methysergide maleate], in assay [1] (Well no.=2284, high concentration screen), the remaining activity at 3.75 µM was 90.3%. For the same compound, the remaining activity at 1.25 µM in assay [2] (Well no.=1087, low concentration screen) was 94.2%; in assay [2] (Well no.=2284, low concentration screen) it was 94.8%.

Regarding `COC1=CC(=O)O[C@@H](/C=C/c2ccc3c(c2)OCO3)C1` [Methysticin], the remaining activity at 3.75 µM in assay [1] (Well no.=3565, high concentration screen) was 108%. For the same compound, the remaining activity at 1.25 µM in assay [2] (Well no.=3565, low concentration screen) stood at 105%.

For the compound `CCN(CC)CCNC(=O)c1cc(Cl)c(N)cc1OC` [Metoclopramide (hydrochloride hydrate)], the remaining activity at 3.75 µM in assay [1] (Well no.=7435, high concentration screen) was 109%. Further, in assay [2] (Well no.=7435, low concentration screen), the remaining activity at 1.25 µM is 106%.

Regarding `CCN(CC)CCNC(=O)c1cc(Cl)c(N)cc1OC` [Metoclopramide hydrochloride], the remaining activity at 3.75 µM in assay [1] (Well no.=966, high concentration screen) amounted to 103%. Also, the remaining activity at 1.25 µM in assay [2] (Well no.=966, low concentration screen) turned out to be 100%.

In the case of `CCN(CC)CCNC(=O)c1cc(Cl)c(N)cc1OC` [Metoclopramide], the remaining activity at 3.75 µM in assay [1] (Well no.=1696, high concentration screen) came out at 102%; in assay [1] (Well no.=6425, high concentration screen) it was 95%. The remaining activity at 1.25 µM came out at 101% in assay [2] (Well no.=1696, low concentration screen) and 99.2% in assay [2] (Well no.=6425, low concentration screen).

Regarding `Cc1ccccc1N1C(=O)c2cc(S(N)(=O)=O)c(Cl)cc2NC1C` (stereo not drawn) [Metolazone], the remaining activity at 3.75 µM in assay [1] (Well no.=943, high concentration screen) amounted to 95.6%; in assay [1] (Well no.=8212, high concentration screen) it was 90.4%. The remaining activity at 1.25 µM in assay [2] (Well no.=943, low concentration screen) came out at 102%; in assay [2] (Well no.=8212, low concentration screen) it was 94.6%.

Turning to `COCCc1ccc(OCC(O)CNC(C)C)cc1` (stereo not drawn) [Metoprolol (Succinate)], the remaining activity at 3.75 µM in assay [1] (Well no.=7475, high concentration screen) was 95.9%. Further, the remaining activity at 1.25 µM in assay [2] (Well no.=7475, low concentration screen) stood at 94.3%.

Regarding `COCCc1ccc(OCC(O)CNC(C)C)cc1` (stereo not drawn) [Metoprolol], the remaining activity at 3.75 µM in assay [1] (Well no.=1959, high concentration screen) is 102%. Further, the remaining activity at 1.25 µM in assay [2] (Well no.=1959, low concentration screen) was determined as 102%.

As for `Cc1ccccc1/C=C/C1=NCCN1` [Metrazoline oxalate], the remaining activity at 3.75 µM in assay [1] (Well no.=1074, high concentration screen) came out at 89.7%. Moreover, in assay [2] (Well no.=1074, low concentration screen), the remaining activity at 1.25 µM amounted to 88.9%.

As for `Cc1ccccc1CNc1ncnc2c1ncn2[C@@H]1O[C@H](CO)[C@@H](O)[C@H]1O` [Metrifudil], in assay [1] (Well no.=851, high concentration screen), the remaining activity at 3.75 µM was 96.8%. The remaining activity at 1.25 µM in assay [2] (Well no.=851, low concentration screen) is 95.7%.

In the case of `Cc1ncc([N+](=O)[O-])n1CCO` [Metronidazole], the remaining activity at 3.75 µM in assay [1] (Well no.=1963, high concentration screen) amounted to 99.9%. The remaining activity at 1.25 µM in assay [2] (Well no.=1963, low concentration screen) was 99.6%.

For `CC[C@H](C)C(=O)O[C@H]1CCC=C2C=C[C@H](C)[C@H](CC[C@@H]3C[C@@H](O)CC(=O)O3)[C@H]21` [Mevastatin], the remaining activity at 3.75 µM in assay [1] (Well no.=922, high concentration screen) came to 104%; in assay [1] (Well no.=1618, high concentration screen), 103%; in assay [1] (Well no.=3381, high concentration screen), 91.3%. The remaining activity at 1.25 µM in assay [2] (Well no.=922, low concentration screen) came to 105%; in assay [2] (Well no.=1618, low concentration screen), 102%; in assay [2] (Well no.=3381, low concentration screen), 90.7%.

For the compound `Cc1cccc(C)c1OCC(C)N` (stereo not drawn) [Mexiletene hydrochloride], the remaining activity at 3.75 µM in assay [1] (Well no.=1066, high concentration screen) turned out to be 99.6%. Besides, in assay [2] (Well no.=1066, low concentration screen), the remaining activity at 1.25 µM turned out to be 102%.

Consider `CC1(C)S[C@@H]2[C@H](NC(=O)[C@H](NC(=O)N3CCN(S(C)(=O)=O)C3=O)c3ccccc3)C(=O)N2[C@H]1C(=O)O` [Mezlocillin (sodium)], for which the remaining activity at 3.75 µM in assay [1] (Well no.=7790, high concentration screen) was 102%. The remaining activity at 1.25 µM in assay [2] (Well no.=7790, low concentration screen) was determined as 99.7%.

Turning to `CN1CCN2c3ccccc3Cc3ccccc3C2C1` (stereo not drawn) [Mianserin (hydrochloride)], the remaining activity at 3.75 µM in assay [1] (Well no.=7477, high concentration screen) is 96.9%. The remaining activity at 1.25 µM in assay [2] (Well no.=7477, low concentration screen) worked out at 105%.
